From patent US20130224223A1, “Compositions and Methods for Treating Neurological Disorders” (GEORGIA REGENTS UNIVERSITY, priority 2007, published 2013)

B1: BDNF: BDNF, a gift from Regeneron; used as a control (protein, UniProt P23560 19-247, looked up)
Neurotrophic factor BDNF …: APMKEANIRGQGGLAYPGVRTHGTLESVNGPKAGSRGLTSLADTFEHVIEELLDEDQKVRPNEENNKDADLYTSRVMLSSQVPLEPPLLFLLEEYKNYLDAANMSMRVRRHSDPARRGELSVCDSISEWVTAADKKTAVDMSGGTVTVLEKVPVSKGQLKQYFYETKCNPMGYTKEGCRGIDKRHWNSQCRTTQSYVRALTMDSKKRIGWRFIRIDTSCVCTLTIKRGR

Experiments:
cortical slices = assay: [3H]GABA release from prefrontal cortical slices; assay type: cell-based, mice; conditions: 20 mM KCl; for depolarization-evoked [3H]GABA release: substance alone, no other exogenous agent, AG1478/AG879 5 mM [sic]
Experimental: FIG. 2A is a line graph of [^3H]GABA release fraction/total fraction versus time (mins). Cortical slices were preloaded with [^3H]GABA for 30 min in the presence of b-alanine (1 mM), an inhibitor of [^3H]GABA uptake by glial cells, aminooxyacetic acid (0.1 mM), an inhibitor of GABA degradation, and nipecotic acid (1 mM), an inhibitor of the GABA transporter in neurons. Basal and depolarization (20 mM KCl)-evoked release of [^3H]GABA were monitored sequentially. Controls (open circles) and NRG1 (closed circles). FIG. 2B is a line graph of percent [^3H]GABA release versus NRG1 concentration (nM). Basal (open circles) K+ evoked (closed circles). […] FIG. 2D is a line graph of cumulative counts versus mIPSC amplitude (pA). Controls (open circles) and NRG1 (closed circles). FIG. 2E is a line graph of cumulative counts versus mIPSC interevent interval (ms). Controls (open circles) and NRG1 (closed circles). FIG. 2F is a bar graph of mIPSC (percent) in control and NRG1 treated pyramidal neurons in prefrontal cortical slices (n=12). Amplitude (clear) and Frequencies (hatched). FIG. 2G is a bar graph of percent eIPSC amplitude in prefrontal cortical slices treated with NRG1 versus control or washout. n=12, *p<0.01. Representative eIPSCs of control, NRG1-treated, or NRG1-treated/washed slices are shown on top. FIG. 2H is a line graph of percent eIPSC amplitude versus NRG1 (nM). n=6, *p<0.05, **p<0.01. FIG. 2I is a bar graph of K^+ evoked [^3H]GABA release (percent) (left axis, clear rectangles) and eIPSC amplitude (percent) (right axis, hatched rectangles) in prefrontal cortical slices treated with NRG1, denature NRG1, or BDNF. n=8 for [^3H]GABA release; for eIPSCs, n=6 for control, NRG1, and denatured NRG1, and n=4 for BDNF. *p<0.05, #p<0.05; **p<0.05, ##<0.01.
NRG1 may regulate GABAergic neurotransmission. To test this hypothesis, the effects of NRG1 on GABA release in cortical slices were determined by both biochemical and electrophysiological approaches. Basal [^3H]GABA release was low, at a rate of 3.75±0.35% (n=8) of total radioactivity per 10 min (FIG. 2A). Treatment of slices with 20 mM KCl, a condition known to depolarize neurons, increased [^3H]GABA release by 2.5-3.5 folds within 10 min (FIG. 2A). NRG1 had no effect on basal [^3H]GABA release; by contrast, it increased depolarization-evoked GABA release in a dose-dependent manner (FIG. 2B). […] Furthermore, the NRG regulation remained unchanged in the presence of antagonists of metabotropic glutamate receptors, cholinergic receptors, serotonin receptors, adrenergic receptors and/or dopamine receptors. As a control, BDNF decreased depolarization-evoked GABA release and eIPSCs in cortical slices, in agreement with earlier studies (Canas, et al., Brain Res, 1016:72-78 (2004); Frerking, et al., J Neurophysiol, 80:3383-3386 (1998)).

[1] = system: prefrontal cortical slices; assay: eIPSC recording in prefrontal cortical slices; assay type: cell-based, mice; conditions: for evoked IPSCs (eIPSCs): substance alone, no other exogenous agent, AG1478/AG879 5 mM [sic]
Experimental: Transverse prefrontal cortical slices (0.3 mm) were prepared from P28-P36 mice using a Vibroslice (Leica VT 10005) in the ice-cold solution, which contained 2.5 mM KCl, 1.25 mM NaH2PO4, 10 mM MgSO4, 0.5 mMCaCl2, 26 mM NaHCO3, 10 mM glucose, and 230 mM sucrose. Slices were allowed to recover for at least 2 hr in ACSF (1 hr at 34° C. followed by 1 hr at 22° C.) in a solution containing 126 mM NaCl, 2.5 mM KCl, 1.25 mM NaH2PO4, 2 mM MgSO4, 2 mM CaCl2, 26 mM NaHCO3, and 10 mM glucose. Slices were placed in the recording chamber and superfused (1.5 ml/min) with ACSF at 34° C. All solutions were saturated with 95% O2/5% CO2. Neurons were visualized with an IR-sensitive CCD camera with a 403 water-immersion lens (Zeiss, Axioskop2 Fsplus) and recorded using whole-cell voltage-clamp techniques (MultiClamp 7008 Amplifier, Digidata 1320A analog-to-digital converter) and pClamp 9.2 software (Axon Instruments). Glass pipettes were filled with the solution containing 125 mM Cs-gluconate, 10 mM CsCl, 1 mM MgCl2, 10 mM HEPES, 1 mM EGTA, 0.1 mM CaCl2, 10 mM sodium phosphocreatine, 4 mM Mg-ATP, 0.3 mM GTP, 0.2 mM leupeptin, and 5 mM lidocaine N-ethylchloride (QX314) (pH 7.2, with the osmolarity adjusted to 280 mOsm with sucrose). The resistance of pipettes was 2-3 MΩ For mIPSC recording, QX314 was omitted in the pipette filling solution, whereas […] was included in the superfusing solution. eIPSCs were generated with a two-concentric bipolar stimulating electrode ([…] pole separation; FHC, ME) positioned about […] from the neuron under recording. Single or paired pulses of 0.2 ms were delivered at 0.1 Hz and synchronized using a Mater-8 stimulator (A.M.P.I). The holding potential for both mIPSCs and eIPSCs was −65 mV. All experiments were done at 34° C. in the presence of 6-cyano-7-nitroquinoxaline-2,3-dione (CNQX, […]) and AP-5 ([…]) to block AMPA/NMDA receptors. Data were collected when series resistance fluctuated within 15% of initial values (8-15 MU), they were filtered at 2 kHz, and they were sampled at 10 kHz.

[2] = system: PV-Cre;ErbB4−/− and PV-Cre;ErbB4+/+ mice; assay: pre-pulse inhibition (PPI) test; assay type: in vivo; conditions: 3 mg/kg
From the text: FIG. 16A is a bar graph showing the baseline startle response (startle amplitude) for PV-Cre;ErbB4+/+ (white bar, n=7) and PV-Cre;ErbB4−/− (hatched bar, n=6) mice under no stimulus, 70 dB (−) and startle stimulus, 120 dB (+), respectively; P>0.05). FIG. 16B is bar graph showing pre-pulse inhibition (%) for PV-Cre;ErbB4+/+ (white bar, n=7) and PV-Cre;ErbB4−/− (hatched bar, n=6) mice at three different levels of pre-pulse (75 dB, 80 dB, 85 dB), P=0.004. PPI=100−100%×(PPx/P120), in which PPx was the amplitude of the startle response after each pre-pulse and P120 was basal startle amplitude. FIG. 16C is a bar graph showing pre-pulse inhibition (%) for PV-Cre;ErbB4+/+ and PV-Cre;ErbB4−/− mice at three different levels of pre-pulse (75 dB, white bars) (80 dB, hatched bars), (85 dB, stippled bars), treated with vehicle or 3 mg/kg diazepam. Repeated measures, * P<0.05, # P=0.573. For vehicle treatment, n=10 and 12 for PV-Cre;ErbB4−/− mice and PV-Cre;ErbB4+/+ littermates, respectively; for diazepam treatment, n=9 and 11 for PV-Cre; ErbB4−/− and PV-Cre;ErbB4+/+, respectively. […]

Molecule	depolarization-evoked [3H]GABA release (cortical slices)	NRG1-enhanced evoked GABA release (cortical slices; substance given with exogenous NRG1)	evoked IPSCs (eIPSCs) [1]	NRG1 potentiation of eIPSCs ([1]; substance given with exogenous NRG1 (5 nM))	PPI in PV-Cre;ErbB4−/− mice ([2]; acute administration, mutant mice)	PPI in control mice ([2]; after 30-min treatment, PV-Cre;ErbB4+/+ littermates)
CC(C)(C)c1cc(/C=C(\C#N)C(N)=S)cc(C(C)(C)C)c1O [AG879]	no detectable effect	no detectable effect	no detectable effect	no detectable effect		
CN1C(=O)CN=C(c2ccccc2)c2cc(Cl)ccc21 [diazepam]					significantly enhanced	no effect
B1	decreased		decreased			
